From paper PMC10340768, “New Hydrolyzable Tannin with Potent Antioxidant and α-Glucosidase Inhibitory Activity from Black Tea Produced from Camellia taliensis” (Foods, 2023) come the findings set out here.

A short description of experiment [1]: ABTS+ radical scavenging assay.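 For all read-outs here: ABTS+ radical solution incubated with compound in EtOH in 96-well plates for 6–8 min in the dark at room temperature, versus blank control, trolox as reference.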 As to conditions: for IC50: half-maximal inhibitory concentration to ABTS+ radical, means ± SD (n = 3); for ABTS+ Inhibition Ratio (%): at a concentration of 500 μM.
Procedure: (§1) The DPPH assay was conducted as follows: the tested compound (final concentration: 0.2–1000 μM in EtOH, 100 μL) and DPPH solution (200 μM in EtOH, 100 μL) were sequentially added to 96-well plates at room temperature, then hid from the light for 15 min. The blank control and positive control (ascorbic acid) were set simultaneously. OD values at 517 nm were detected with a microplate reader. ABTS^+ assay was carried out as follows: firstly, the ABTS^+ solution was prepared using the procedure in our previous paper [19]. Then, the tested compound (final concentration: 0.2–1000 μM in EtOH, 10 μL) and ABTS^+ solution (200 μL) were added to 96-well plates at room temperature in an orderly manner, and then hided from light for 6–8 min. The blank control and positive control (trolox) were set synchronously. OD values at 405 nm were then detected with a microplate reader. All the reactions were set up three replicates.
A short description of experiment [2]: DPPH radical scavenging assay.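 For all read-outs here: compounds in EtOH mixed 1:1 with 200 µM DPPH in EtOH in 96-well plates, kept dark 15 min at room temperature, with blank control and ascorbic acid as reference.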 As to conditions: for IC50: half-maximal inhibitory concentration to DPPH radical, means ± SD (n = 3); for DPPH Inhibition Ratio (%): at a concentration of 500 μM. (In general: DPPH is a stable violet radical that fades when it is reduced.)
Procedure: as §1
Another experiment concerns the target α-glucosidase. Kind of experiment: α-Glucosidase inhibitory activity (PNPG substrate). The format is biochemical. To be noted: means ± SD (n = 3).

Procedure for α-glucosidase: Initially, 96-well plates with the following ingredients were added in a proper order: testing compound (50 μM), α-glucosidase solution (0.025 U/mL), buffer, and the zymolyte (1 mM), and kept at 37 °C for 50 min. […] All the reactions were set up with three replicates. OD values at 405 nm were recorded with a microplate reader.

As a reminder, the IC50 is the concentration that gives 50% inhibition. Regarding `O=C(OC[C@H]1O[C@@H](OC(=O)c2cc(O)c(O)c(O)c2)[C@H](OC(=O)c2cc(O)c(O)c(O)c2)[C@@H](O)[C@@H]1O)c1cc(O)c(O)c(O)c1` [Compound 7, 1,2,6-tri-O-galloy-β-D-glucopyranose], the values for the half-inhibitory concentration (IC50) (in experiment [1]; in experiment [2]; against α-glucosidase) were 128.4 ± 0.9 µM, 532 ± 38 µM and 1.96 ± 0.05 µM, respectively.

Take `O=C(O)/C=C/c1ccc(O)c(O)c1` [Compound 28, caffeic acid]: the IC50 turned out to be 199 ± 4.1 µM in experiment [1] and 479 ± 33.8 µM in experiment [2].

For the molecule `O=C(/C=C/c1ccc(O)c(O)c1)O[C@@H]1CC(C(=O)O)=C[C@@H](O)[C@H]1O` [Compound 27, 5-O-caffeoylshikimic acid], the IC50 in experiment [1] amounted to 545 ± 12.8 µM; in experiment [2], 722 ± 43.2 µM.

`O=C(/C=C/c1ccc(O)cc1)OC[C@H]1O[C@@H](Oc2c(-c3ccc(O)cc3)oc3cc(O)cc(O)c3c2=O)[C@H](O)[C@@H](O)[C@@H]1O` [Compound 10, kaempferol 3-O-(6″-trans-p-coumaroyl)-β-D-glucopyranoside]: the “ABTS+ Inhibition Ratio (%)” value in experiment [1] is 11.55%. Also, the “DPPH Inhibition Ratio (%)” value in experiment [2] came out at 6.28%.

`O=C(OC[C@H]1O[C@@H](OC(=O)c2cc(O)c(O)c(O)c2)[C@H](O)[C@@H](O)[C@@H]1O)c1cc(O)c(O)c(O)c1` [Compound 6, 1,6-di-O-galloyl-β-D-glucopyranose]: the figures for the IC50 in experiment [1] and in experiment [2] were 99.7 ± 1.4 µM and 217 ± 27.4 µM, respectively.

Consider `O=C(O[C@@H]1O[C@@H]2COC(=O)c3cc(O)c(O)c(O)c3-c3c(cc(O)c(O)c3O)C(=O)O[C@H]2[C@H](O)[C@H]1OC(=O)c1cc(O)c(O)c(O)c1)c1cc(O)c(O)c(O)c1` [Compound 5, 1,2-di-O-galloyl-4,6-O-(S)-hexahydroxydiphenoyl-β-D-glucopyranose], for which the IC50 in experiment [1] was determined as 75.6 ± 2.1 µM; in experiment [2], 301 ± 79.6 µM; on α-glucosidase, 0.67 ± 0.04 µM.

As for `C[C@@H]1O[C@@H](Oc2c(-c3ccc(O)cc3)oc3cc(O)cc(O)c3c2=O)[C@H](O[C@@H]2O[C@H](CO)[C@@H](O)[C@H](O)[C@H]2O)[C@H](O)[C@H]1O` [Compound 18, kaempferol 3-(2″-β-D-glucosyl)-α-L-rhamnopyranoside], the “ABTS+ Inhibition Ratio (%)” value in experiment [1] is given as 5.89%. Moreover, the “DPPH Inhibition Ratio (%)” value in experiment [2] came to 1.08%.

As for `O=C(OC[C@H]1O[C@@H](OC(=O)c2cc(O)c(O)c(O)c2)[C@H](O)[C@@H](O)[C@@H]1OC(=O)c1cc(O)c(O)c(O)c1)c1cc(O)c(O)c(O)c1` [Compound 8, 1,4,6-tri-O-galloyl-β-D-glucopyranose], the IC50 in experiment [1] is 77.2 ± 0.7 µM; in experiment [2], 156 ± 26.1 µM; against α-glucosidase, 2.01 ± 0.02 µM.

Take `O=c1c(O[C@@H]2O[C@H](CO)[C@H](O)[C@H](O)[C@H]2O)c(-c2ccc(O)cc2)oc2cc(O)cc(O)c12` [Compound 14, kaempferol 3-O-β-D-galactopyranoside]: the “ABTS+ Inhibition Ratio (%)” value in experiment [1] is 4.03%. In experiment [2], the “DPPH Inhibition Ratio (%)” value is listed as −0.94%.

As for `O=C(O)c1ccc(O)cc1` [Compound 21, p-hydroxybenzoic acid], the “ABTS+ Inhibition Ratio (%)” value in experiment [1] is 3.21%. Further, in experiment [2], the “DPPH Inhibition Ratio (%)” value amounted to 3.32%.

In the case of `O=c1c(O)c(-c2ccc(O)c(O)c2)oc2cc(O)cc(O)c12` [Compound 16, quercetin], the figures for the IC50 in experiment [1] and in experiment [2] were 206 ± 2.6 µM and 1140 ± 207 µM, respectively.

For `O=C(O)/C=C\c1ccc(O[C@@H]2O[C@H](COC(=O)c3cc(O)c(O)c(O)c3)[C@@H](O)[C@H](O)[C@H]2O)cc1` [Compound 2, 4-O-(6′-O-galloyl-β-D-glucopyranosyl)-cis-p-coumaric acid], the IC50 amounted to 400 ± 9.6 µM in experiment [1] and 502 ± 14 µM in experiment [2].

`O=C(C=Cc1ccc(O)cc1)OC1CC(O)(C(=O)O)CC(O)C1O` (centres unmarked) [Compound 26, 5-O-(E)-p-coumaroylquinic acid]: the “ABTS+ Inhibition Ratio (%)” value in experiment [1] stood at 6.82%. The “DPPH Inhibition Ratio (%)” value in experiment [2] is listed as 6.92%.

In the case of `O=C(O)c1ccc(O)c(O)c1` [Compound 20, 3,4-dihydroxybenzoic acid], the IC50 in experiment [1] came out at 462 ± 9.3 µM; in experiment [2] it was 2120 ± 336 µM.

On to `O=C(O[C@@H]1O[C@@H]2COC(=O)c3cc(O)c(O)c(O)c3-c3c(cc(O)c(O)c3O)C(=O)O[C@H]2[C@H](O)[C@H]1O)c1cc(O)c(O)c(O)c1` [Compound 4, 1-O-galloyl-4,6-O-(S)-hexahydroxydiphenoyl-β-D-glucopyranose], for which the IC50 in experiment [1] amounted to 84.8 ± 0.4 µM; in experiment [2] it was 312 ± 10.8 µM; against α-glucosidase, 1.96 ± 0.06 µM.

Regarding `C[C@@H]1O[C@@H](OC[C@H]2O[C@@H](Oc3c(-c4ccc(O)c(O)c4)oc4cc(O)cc(O)c4c3=O)[C@H](O)[C@@H](O)[C@@H]2O)[C@H](O)[C@H](O)[C@H]1O` [Compound 13, rutin], the IC50 is 266 ± 5.4 µM in experiment [1] and 900 ± 63.4 µM in experiment [2].

Regarding “1-(3′,4′-dihydroxycinnamoyl) cyclopentane-2,3-diol [Compound 30]”, the results for the IC50 in experiment [1] and in experiment [2] were 307 ± 3.3 µM and 548 ± 61.5 µM, respectively.

Regarding `O=C(O)c1cc(O)c(O)c(O)c1` [Compound 19, gallic acid], the IC50 was 202 ± 3.4 µM in experiment [1] and 237 ± 22.6 µM in experiment [2].

Turning to `O=c1c(O[C@@H]2O[C@H](CO)[C@@H](O)[C@H](O)[C@H]2O)c(-c2ccc(O)cc2)oc2cc(O)cc(O)c12` [Compound 9, kaempferol 3-O-β-D-glucopyranoside], the “ABTS+ Inhibition Ratio (%)” value in experiment [1] worked out at 0.19%. Further, the “DPPH Inhibition Ratio (%)” value in experiment [2] was found to be 0.97%.

`O=c1c(O[C@@H]2O[C@H](CO)[C@@H](O)[C@H](O)[C@H]2O)c(-c2ccc(O)c(O)c2)oc2cc(O)cc(O)c12` [Compound 11, quercetin 3-O-β-D-glucopyranoside] came in with an IC50 in experiment [1] of 322.8 ± 0.6 µM.

As to `Cc1c(C)c2c(c(C)c1O)CCC(C)(C(=O)O)O2` (centres unmarked) [Trolox, trolox, reference compound], the IC50 in experiment [1] was found to be 405 ± 6.2 µM.

In turn, `O=C1O[C@H]([C@@H](O)CO)C(O)=C1O` [Ascorbic acid, ascorbic acid, reference compound] returned an IC50 in experiment [2] of 1200 ± 87.7 µM.

For `O=C(O)c1cccc(O)c1` [Compound 22, m-hydroxybenzoic acid], in experiment [1], the “ABTS+ Inhibition Ratio (%)” value was found to be 7.00%. In addition, the “DPPH Inhibition Ratio (%)” value in experiment [2] is recorded as 7.58%.

Consider `C[C@@H]1O[C@@H](Oc2c(-c3ccc(O)cc3)oc3cc(O)cc(O)c3c2=O)[C@H](O)[C@H](O)[C@H]1O` [Compound 15, kaempferol 3-O-α-L-rhamnopyranoside], for which the “ABTS+ Inhibition Ratio (%)” value in experiment [1] is recorded as 8.00%. Further, the “DPPH Inhibition Ratio (%)” value in experiment [2] is on record as 1.04%.

Consider `C[C@@H]1O[C@@H](Oc2c(-c3ccc(O)c(O)c3)oc3cc(O)cc(O)c3c2=O)[C@H](O[C@@H]2O[C@H](CO)[C@@H](O)[C@H](O)[C@H]2O)[C@H](O)[C@H]1O` [Compound 17, quercetin 3-(2″-β-D-glucosyl)-α-L-rhamnopyranoside], for which the IC50 in experiment [1] worked out at 480.9 ± 4.1 µM; in experiment [2] it was 2620 ± 500 µM.

In the case of `O=C(O[C@H]1C(O)O[C@@H]2COC(=O)c3cc(O)c(O)c(O)c3-c3c(cc(O)c(O)c3O)C(=O)O[C@H]2[C@@H]1O)c1cc(O)c(O)c(O)c1` (stereo partly drawn) [Compound 3, 2-O-galloyl-4,6-O-(S)-hexahydroxydiphenoyl-β-D-glucopyranose], the values for the IC50 (in experiment [1]; in experiment [2]; against α-glucosidase) were 106 ± 0.5 µM, 941 ± 191 µM and 1.74 ± 0.03 µM, respectively.

With `O=C(O)/C=C/c1ccc(O)cc1` [Compound 29, E-p-hydroxycinnamic acid], the “ABTS+ Inhibition Ratio (%)” value in experiment [1] was found to be 8.12%. The “DPPH Inhibition Ratio (%)” value in experiment [2] was determined as 1.55%.

For the molecule `COC(=O)c1cc(O)c(O)c(O)c1` [Compound 23, methyl gallate], the IC50 in experiment [1] came to 187 ± 2.7 µM; in experiment [2], 299 ± 32.3 µM.

For `C[C@@H]1O[C@@H](OC[C@H]2O[C@@H](Oc3c(-c4ccc(O)cc4)oc4cc(O)cc(O)c4c3=O)[C@H](O)[C@@H](O)[C@@H]2O)[C@H](O)[C@H](O)[C@H]1O` [Compound 12, kaempferol 3-O-rutinoside], the “ABTS+ Inhibition Ratio (%)” value in experiment [1] is 4.24%. The “DPPH Inhibition Ratio (%)” value in experiment [2] is listed as 8.58%.

Turning to `O=C1O[C@@H](c2ccc(O)cc2)Cc2cc(O)cc(O)c21` [Compound 32, (3R)-thunberginol C], the IC50 came out at 560.3 ± 3.3 µM in experiment [1] and 3940 ± 825 µM in experiment [2].

For the molecule `O=C(O[C@@H]1O[C@@H]2COC(=O)c3cc(O)c(O)c4oc5c(O)c(O)cc(c5c34)C(=O)O[C@H]2[C@H](O)[C@H]1O)c1cc(O)c(O)c(O)c1` [Compound 1, 1-O-galloyl-4,6-tetrahydroxydibenzofurandicarboxyl-β-D-glucopyranose], the IC50 in experiment [1] came to 111 ± 2.1 µM; in experiment [2], 339 ± 24.7 µM; on α-glucosidase, 1.77 ± 0.05 µM.
